Assay results as given in patent US6737383B1, “Herbicidal oxadiazolidines” (priority 1999, dated 2004).

How the values were obtained:
smallflower flatsedge = experiment: Test B flood test smallflower flatsedge; assay type: in vivo, Cyperus difformis
Summary of the method: (§1)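 Flood test on plants grown to the 2-leaf stage; treated plants kept in greenhouse twelve to sixteen days, then visually rated against controls on a 0 (no effect) to 10 (complete control) scale.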

surinam grass = experiment: Test B pre/postemergence surinam grass; assay type: in vivo, Brachiaria decumbens; details: for Plant response rating, B. signalgrass: Rate 250 g/ha
Summary of the method: (§2)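 Test chemicals in a non-phytotoxic solvent mixture with surfactant were sprayed preemergence onto planted seeds and postemergence onto plants 2 to 18 cm tall (1- to 4-leaf stage). After twelve to sixteen days in a greenhouse, injury was visually rated against untreated controls from 0 (no effect) to 10 (complete control).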

bedstraw = experiment: Test B pre/postemergence bedstraw; assay type: in vivo, Galium aparine
Summary of the method: as §2

blackgrass = experiment: Test B pre/postemergence blackgrass; assay type: in vivo, Alopecurus myosuroides; details: for Plant response rating, Blackgrass: Rate 250 g/ha
Summary of the method: as §2

crabgrass = experiment: Test B pre/postemergence crabgrass; assay type: in vivo, Digitaria sanguinalis; details: for Plant response rating, Crabgrass: Rate 250 g/ha
Summary of the method: as §2

soybean = experiment: Test B pre/postemergence soybean; assay type: in vivo, Glycine max; details: for Plant response rating, Soybean: Rate 250 g/ha
Summary of the method: as §2

corn = experiment: Test B pre/postemergence corn; assay type: in vivo, Zea mays; details: for Plant response rating, Corn: Rate 250 g/ha
Summary of the method: as §2

rape = experiment: Test B pre/postemergence rape; assay type: in vivo, Brassica napus; details: for Plant response rating, Rape: Rate 250 g/ha
Summary of the method: as §2

velvetleaf = experiment: Test B pre/postemergence velvetleaf; assay type: in vivo, Abutilon theophrasti; details: for Plant response rating, Velvetleaf: Rate 250 g/ha
Summary of the method: as §2

pigweed = experiment: Test B pre/postemergence pigweed; assay type: in vivo, Amaranthus retroflexus; details: for Plant response rating, Redroot pigweed: Rate 250 g/ha
Summary of the method: as §2

wild oat = experiment: Test B pre/postemergence wild oat; assay type: in vivo, Avena fatua; details: for Plant response rating, Wild oats: Rate 250 g/ha
Summary of the method: as §2

purple nutsedge = experiment: Test B pre/postemergence purple nutsedge; assay type: in vivo, Cyperus rotundus; details: for Plant response rating, Nutsedge: Rate 250 g/ha
Summary of the method: as §2

sugar beet = experiment: Test B pre/postemergence sugar beet; assay type: in vivo, Beta vulgaris; details: for Plant response rating, Sugarbeets: Rate 250 g/ha
Summary of the method: as §2

cocklebur = experiment: Test B pre/postemergence cocklebur; assay type: in vivo, Xanthium strumarium; details: for Plant response rating, Cocklebur: Rate 250 g/ha
Summary of the method: as §2

wheat = experiment: Test B pre/postemergence wheat; assay type: in vivo, Triticum aestivum; details: for Plant response rating, Wheat: Rate 250 g/ha
Summary of the method: as §2

bamyardgrass = experiment: Test B flood test barnyardgrass; assay type: in vivo, Echinochloa crus-galli
Summary of the method: as §1

[1] = Postemergence (flood test species), Rate 125 g/ha, scale of 0 to 10 where 0 is no effect and 10 is complete control
[2] = Rate 250 g/ha, Postemergence (flood test), scale 0 to 10, 0 is no effect, 10 is complete control
[3] = Rate 250 g/ha, headed Pre-emergence (flood test species), scale 0 to 10 (0 no effect, 10 complete control)
[4] = Rate 500 g/ha, headed Pre-emergence (flood test species), scale 0 to 10 (0 no effect, 10 complete control)
[5] = Rate 500 g/ha, listed under Postemergence (flood test species), scale 0 to 10, 0 no effect, 10 complete control
[6] = Postemergence, Rate 62 g/ha, scale 0 to 10, 0 is no effect, 10 is complete control
[7] = Postemergence, Rate 125 g/ha, scale of 0 to 10 where 0 is no effect and 10 is complete control
[8] = Preemergence, Rate 62 g/ha, scale 0 to 10 (0 no effect, 10 complete control)
[9] = Preemergence, Rate 125 g/ha, 0 is no effect, 10 is complete control
[10] = Preemergence, scale of 0 to 10 where 0 is no effect and 10 is complete control
[11] = Preemergence, Rate 500 g/ha, scale 0 to 10 (0 no effect, 10 complete control)
[12] = Postemergence, scale 0 to 10, 0 is no effect, 10 is complete control
[13] = Rate 500 g/ha, Postemergence, scale 0 to 10, 0 no effect, 10 complete control
[14] = Rate 62 g/ha, Postemergence, scale of 0 to 10 where 0 is no effect and 10 is complete control

## CC(C)N(C(=O)n1oc(=O)n(-c2cnn(C)c2Cl)c1=O)c1ccccc1 [Compound 122]
Smallflower flatsedge; [1]
  S. Flatsedge plant response rating: 0
Smallflower flatsedge; Pre-emergence, Rate 1000 g/ha, scale 0 to 10 (0 no effect, 10 complete control)
  S. Flatsedge plant response rating: 0
Smallflower flatsedge; Rate 62 g/ha, Postemergence section, flood test species, scale of 0 to 10 where 0 is no effect and 10 is complete control
  S. Flatsedge plant response rating: 0
Smallflower flatsedge; [2]
  Plant response rating, S. Flatsedge: 0
Smallflower flatsedge; [3]
  S. Flatsedge plant response rating: 0
Smallflower flatsedge; [4]
  Plant response rating, S. Flatsedge: 0
Smallflower flatsedge; [5]
  S. Flatsedge plant response rating: 0
Smallflower flatsedge; Rate 2000 g/ha, Pre-emergence (as headed), scale 0 to 10
  S. Flatsedge plant response rating: 0
Surinam grass; [6]
  B. signalgrass plant response rating: 0
Surinam grass; [7]
  B. signalgrass plant response rating: 0
Surinam grass; [8]
  B. signalgrass plant response rating: 0
Surinam grass; [9]
  B. signalgrass plant response rating (0 to 10 scale): 0
Surinam grass; [10]
  Plant response rating, B. signalgrass: 0
Surinam grass; [11]
  B. signalgrass plant response rating: 5
Surinam grass; [12]
  Plant response rating, B. signalgrass: 0
Surinam grass; Rate 500 g/ha, Postemergence, scale of 0 to 10 where 0 is no effect and 10 is complete control
  B. signalgrass plant response rating: 0
bedstraw; [8]
  Bedstraw plant response rating: 0
bedstraw; [9]
  Bedstraw plant response rating (0 to 10 scale): 0
bedstraw; Preemergence, Rate 250 g/ha, scale of 0 to 10 where 0 is no effect and 10 is complete control
  Plant response rating, Bedstraw: 0
bedstraw; [11]
  Bedstraw plant response rating: 0
bedstraw; [13]
  Bedstraw plant response rating: 3
blackgrass; [7]
  Blackgrass plant response rating: 0
blackgrass; [8]
  Blackgrass plant response rating: 0
blackgrass; [9]
  Blackgrass plant response rating (0 to 10 scale): 0
blackgrass; [10]
  Plant response rating, Blackgrass: 0
blackgrass; [11]
  Blackgrass plant response rating: 3
blackgrass; [14]
  Blackgrass plant response rating: 0
blackgrass; [12]
  Plant response rating, Blackgrass: 4
blackgrass; [13]
  Blackgrass plant response rating: 6
crabgrass; [7]
  Crabgrass plant response rating: 3
crabgrass; [8]
  Crabgrass plant response rating: 4
crabgrass; [9]
  Crabgrass plant response rating (0 to 10 scale): 4
crabgrass; [10]
  Plant response rating, Crabgrass: 8
crabgrass; [11]
  Crabgrass plant response rating: 8
crabgrass; [14]
  Crabgrass plant response rating: 0
crabgrass; [12]
  Plant response rating, Crabgrass: 4
crabgrass; [13]
  Crabgrass plant response rating: 5
soybean; [7]
  Soybean plant response rating: 3
soybean; [8]
  Soybean plant response rating: 0
soybean; [9]
  Soybean plant response rating (0 to 10 scale): 0
soybean; [10]
  Plant response rating, Soybean: 0
soybean; [11]
  Soybean plant response rating: 0
soybean; [14]
  Soybean plant response rating: 3
soybean; [12]
  Plant response rating, Soybean: 3
soybean; [13]
  Soybean plant response rating: 5
corn; [7]
  Corn plant response rating: 0
corn; [8]
  Corn plant response rating: 0
corn; [9]
  Corn plant response rating (0 to 10 scale): 0
corn; [10]
  Plant response rating, Corn: 0
corn; [11]
  Corn plant response rating: 0
corn; [14]
  Corn plant response rating: 0
corn; [12]
  Plant response rating, Corn: 0
corn; [13]
  Corn plant response rating: 0
rape; [7]
  Rape plant response rating: 0
rape; [8]
  Rape plant response rating: 0
rape; [9]
  Rape plant response rating (0 to 10 scale): 0
rape; [10]
  Plant response rating, Rape: 0
rape; [11]
  Rape plant response rating: 3
rape; [14]
  Rape plant response rating: 0
rape; [12]
  Plant response rating, Rape: 3
rape; [13]
  Rape plant response rating: 4
velvetleaf; [7]
  Velvetleaf plant response rating: 0
velvetleaf; [8]
  Velvetleaf plant response rating: 0
velvetleaf; [9]
  Velvetleaf plant response rating (0 to 10 scale): 0
velvetleaf; [10]
  Plant response rating, Velvetleaf: 0
velvetleaf; [11]
  Velvetleaf plant response rating: 3
velvetleaf; [14]
  Velvetleaf plant response rating: 0
velvetleaf; [12]
  Plant response rating, Velvetleaf: 3
velvetleaf; [13]
  Velvetleaf plant response rating: 3
pigweed; [7]
  Redroot pigweed plant response rating: 1
pigweed; [8]
  Redroot pigweed plant response rating: 0
pigweed; [9]
  Redroot pigweed plant response rating (0 to 10 scale): 5
pigweed; [10]
  Plant response rating, Redroot pigweed: 8
pigweed; [11]
  Redroot pigweed plant response rating: 8
pigweed; [14]
  Redroot pigweed plant response rating: 0
pigweed; [12]
  Plant response rating, Redroot pigweed: 2
pigweed; [13]
  Redroot pigweed plant response rating: 5
Wild oat; [7]
  Wild oats plant response rating: 0
Wild oat; [8]
  Wild oats plant response rating: 0
Wild oat; [9]
  Wild oats plant response rating (0 to 10 scale): 0
Wild oat; [10]
  Plant response rating, Wild oats: 3
Wild oat; [11]
  Wild oats plant response rating: 5
Wild oat; [14]
  Wild oats plant response rating: 0
Wild oat; [12]
  Plant response rating, Wild oats: 0
Wild oat; [13]
  Wild oats plant response rating: 0
Purple nutsedge; [7]
  Nutsedge plant response rating: 0
Purple nutsedge; [8]
  Nutsedge plant response rating: 0
Purple nutsedge; [9]
  Nutsedge plant response rating (0 to 10 scale): 0
Purple nutsedge; [10]
  Plant response rating, Nutsedge: 0
Purple nutsedge; [11]
  Nutsedge plant response rating: 0
Purple nutsedge; [14]
  Nutsedge plant response rating: 0
Purple nutsedge; [12]
  Plant response rating, Nutsedge: 0
Purple nutsedge; [13]
  Nutsedge plant response rating: 0
Sugar beet; [7]
  Sugarbeets plant response rating: 0
Sugar beet; [8]
  Sugarbeets plant response rating: 0
Sugar beet; [9]
  Sugarbeets plant response rating (0 to 10 scale): 0
Sugar beet; [10]
  Plant response rating, Sugarbeets: 0
Sugar beet; [11]
  Sugarbeets plant response rating: 4
Sugar beet; [14]
  Sugarbeets plant response rating: 0
Sugar beet; [12]
  Plant response rating, Sugarbeets: 0
Sugar beet; [13]
  Sugarbeets plant response rating: 2
cocklebur; [7]
  Cocklebur plant response rating: 2
cocklebur; [8]
  Cocklebur plant response rating: 0
cocklebur; [10]
  Plant response rating, Cocklebur: 0
cocklebur; [14]
  Cocklebur plant response rating: 0
cocklebur; [12]
  Plant response rating, Cocklebur: 3
cocklebur; [13]
  Cocklebur plant response rating: 3
wheat; [7]
  Wheat plant response rating: 0
wheat; [8]
  Wheat plant response rating: 0
wheat; [9]
  Wheat plant response rating (0 to 10 scale): 0
wheat; [10]
  Plant response rating, Wheat: 0
wheat; [11]
  Wheat plant response rating: 0
wheat; [14]
  Wheat plant response rating: 0
wheat; [12]
  Plant response rating, Wheat: 0
wheat; [13]
  Wheat plant response rating: 0
bamyardgrass; [1]
  Barnyardgrass plant response rating: 0
bamyardgrass; [6]
  Barnyardgrass plant response rating: 0
bamyardgrass; [2]
  Plant response rating, Barnyardgrass: 0
bamyardgrass; [3]
  Barnyardgrass plant response rating: 0
bamyardgrass; [4]
  Plant response rating, Barnyardgrass: 0
bamyardgrass; [5]
  Barnyardgrass plant response rating: 0
bamyardgrass; Rate 1000 g/ha, Pre-emergence (as headed), scale 0 to 10
  Barnyardgrass plant response rating: 0
bamyardgrass; Rate 2000 g/ha, Pre-emergence (as headed), scale 0 to 10, 0 no effect, 10 complete control
  Barnyardgrass plant response rating: 0
